{
  "source": "patent US20050261221A1",
  "about": "“Compositions and methods for enhanced delivery of compounds via transfection complexes” (priority 2004, published 2005)",
  "key": {"[1]": {"tested_on": "nerve growth factor (NGF) mRNA", "conditions": "reported [39]; cited from earlier work"}, "[2]": {"tested_on": "vascular smooth muscle cells (VSMCs)", "experiment": "Transfection of VSMCs with cationic phospholipid (EDOPC)-DNA complexes, β-galactosidase microplate fluorometric assay", "type": "cell-based, Wistar rats", "conditions": "for Effect on transfection: 0.001-0.5 μM cytochalasin B for 3 h, then DNA-lipid complexes 3 h", "procedure": "Primary vascular smooth muscle cells were obtained by removal of the thoracoabdominal aortas of Wistar rats, which were then stripped of endothelium and adventitia. Medial VSMCs were maintained in Dubecco's Modified Eagle's Medium (DMEM), 20% fetal bovine serum (FBS), 200 units/ml penicillin, 200 μg/ml streptomycin (all Gibco, Gaitherburg, Md.) at 37° C. with 5% CO2. At confluence, the cells were passaged using 0.25 mg/ml Trypsin/EDTA (Clonetics, Walkersville, Md.) and were used at passage 3-10 for these experiments.\nThe cells were seeded in 96-well plates at 24 h before transfection at densities to give about 80% confluence at the time of transfection. Normally, EDOPC was suspended in D-PBS at 1 mg/ml to form liposomes. Liposomes and plasmid DNA were diluted in serum-free cell culture medium to 60 μg/ml for lipid and to 20 μg/ml for DNA, and liposomes were pipetted into an equal volume of plasmid DNA solution at a 3:1 weight ratio and mixed gently. The resultant DNA-lipid complexes were incubated at room temperature for 15 min and then added to the cells that were either in medium lacking serum or medium containing 20% fetal bovine serum (FBS). At 3 h after addition of DNA-lipid complexes, except as stated otherwise, the cells were washed with PBS and fresh medium containing 20% FBS was added. Generally, the cells were incubated with free drugs in 20% FBS DMEM for the indicated duration, and then, unless otherwise described, the cells were washed with PBS and incubated with DNA-lipid complexes. For experiments involving co-treatment with taxol and colchicine, the cells were first incubated with taxol for 30 min and then colchicine was added to the medium. […] Subsequent steps were same as for the normal lipoplexes.\nCells were assayed for β-galactosidase activity 24 h after transfection with a microplate fluorometric assay, modified by inclusion of a heating step (50° C., 45 min) to inactivate endogenous enzyme activity. Following aspiration of the medium from each well, the cells were washed once with PBS and then lysed by addition of 100 μl lysis buffer (0.03% Triton X-100 in 100 mM HEPES, pH 7.8, containing 1 mM MgSO4, 10 mM KCl). The plates were placed at 50° C. for 45 min and then allowed to cool to room temperature. 10 μl 100 μM FDG (fluorescein di-β-D-galactopyranoside) was added into each well. Fluorescence was measured with a microplate fluorimeter (Model 7620, Cambridge Technology Inc.) after incubation at 37° C. for 3 h. Fluorescence intensity is proportional to β-galactosidase expression; 2000 fluorescence units corresponded approximately to 0.1 milliunit of β-galactosidase. The expression of VSMCs transfected with normal lipoplexes in absence of serum and any pretreatment was ˜0.1 milliunit per well."}, "[3]": {"conditions": "cited from earlier work"}, "[4]": {"conditions": "100 μM TLCK in fresh 20% FBS after 3 h lipoplex treatment"}},
  "note": "Where “and” joins values, the source holds several entries; their conditions need not be identical. Identical values can stand only once. Entries after “also recorded” stand apart in the source; their conditions may differ.",
  "data": [
    {"compound": "COC(=O)Nc1nc2ccc(C(=O)c3cccs3)cc2[nH]1", "note": "[Nocodazole, nocodazole]", "values": [
      {"measurement": "Effect on the level of NGF mRNA", "setting": "[1]", "value": "increase"},
      {"measurement": "Fold increase of transfection means ± S.D.", "setting": "[2]; optimal conditions: 50 μM free drug, 3 h pretreatment, 20% FBS", "value": "14 ± 2.0", "unit": "fold"},
      {"measurement": "Fold increase of transfection means ± S.D.", "setting": "[2]; optimal conditions: 50 μM free drug, 3 h pretreatment, 20% FBS, listed as nocodazole", "value": 14, "unit": "fold"},
      {"measurement": "Fold increase of transfection means ± S.D.", "setting": "[2]; optimal conditions: 50 μM free drug, 3 h pretreatment, No serum", "value": "31 ± 5.0", "unit": "fold"},
      {"measurement": "Fold increase of transfection means ± S.D.", "setting": "[2]; optimal conditions: 50 μM free drug, 3 h pretreatment, No serum, listed as nocodazole", "value": 31, "unit": "fold"}
    ]},
    {"compound": "S=C(S)N1CCCC1", "note": "[PDTC, pyrrolidinedithiocarbamate]", "values": [
      {"measurement": "inhibition at 10 µM", "setting": "[2]; Rattus norvegicus, VSMC, read-out: Reduction of transfection with VB-lipoplexes (inhibition of vinblastine stimulation), 10 μM PDTC in fresh 20% FBS after 3 h lipoplex treatment", "value": 85, "unit": "%"},
      {"measurement": "Transfection stimulation by VB-lipoplexes", "setting": "[2]; after treatment with 10 μM PDTC", "value": 5, "unit": "×"}
    ]},
    {"compound": "Cc1ccc(S(=O)(=O)N[C@@H](CCCCN)C(=O)CCl)cc1", "note": "[TLCK, Nα-p-tosyl-L-lysine chloromethyl ketone]", "values": [
      {"measurement": "Decrease of transfection of VB-lipoplexes (inhibition of vinblastine stimulation)", "setting": "[2]; [4]", "value": 66, "unit": "%"},
      {"measurement": "Decrease of transfection of normal lipoplexes", "setting": "[2]; [4]", "value": 50, "unit": "%"}
    ]},
    {"compound": "CC[C@]1(O)C[C@H]2CN(CCc3c([nH]c4ccccc34)[C@@](C(=O)OC)(c3cc4c(cc3OC)N(C=O)[C@H]3[C@@](O)(C(=O)OC)[C@H](OC(C)=O)[C@]5(CC)C=CCN6CC[C@]43[C@@H]65)C2)C1", "note": "[Vincristine, vincristine]", "values": [
      {"measurement": "Fold increase of transfection means ± S.D.", "setting": "[2]; optimal conditions: 1/50 (w/w) VC/lipid incorporated in lipid, 20% FBS during 3 h incubation with complexes", "value": "39 ± 6.9", "unit": "fold"},
      {"measurement": "Fold increase of transfection means ± S.D.", "setting": "[2]; optimal conditions: 1/50 (w/w) VC/lipid incorporated in lipid, 20% FBS during 3 h incubation with complexes, listed as vincristine", "value": 39, "unit": "fold"},
      {"measurement": "Fold increase of transfection means ± S.D.", "setting": "[2]; optimal conditions: 1/50 (w/w) VC/lipid incorporated in lipid, No serum during 3 h incubation with complexes", "value": "25 ± 5.7", "unit": "fold"},
      {"measurement": "Fold increase of transfection means ± S.D.", "setting": "[2]; optimal conditions: 1/50 (w/w) VC/lipid incorporated in lipid, No serum during 3 h incubation with complexes, listed as vincristine", "value": 25, "unit": "fold"}
    ]},
    {"compound": "COc1cc2c(c(OC)c1OC)-c1ccc(OC)c(=O)cc1[C@@H](NC(C)=O)CC2", "note": "[colchicine, Colchicine]", "values": [
      {"measurement": "Effect on the level of NGF mRNA", "setting": "[1]", "value": "increase"},
      {"measurement": "Effect on transfection when added to cells simultaneously with lipoplexes", "setting": "[2]; 0.05 μg/ml colchicine, simultaneous with lipoplexes, absence of serum", "value": "increased marginally"},
      {"measurement": "Effect on expression when added to cells simultaneously with lipoplexes", "setting": "[2]; free colchicine added simultaneously with lipoplexes", "value": "not noticeably stimulated; also recorded: no stimulation"},
      {"measurement": "Fold increase of transfection (β-galactosidase expression)", "setting": "[2]; pretreatment with 8 μg/ml free colchicine 3 h, 20% FBS", "value": "~23 fold and 24 fold"},
      {"measurement": "Fold increase of transfection (β-galactosidase expression)", "setting": "[2]; pretreatment with 8.0 μg/ml free colchicine 3 h, absence of serum", "value": "~23", "unit": "fold"}
    ]},
    {"compound": "C=C1[C@@H](C)[C@H]2[C@H](Cc3ccccc3)NC(=O)[C@]23OC(=O)/C=C/[C@H](O)CCC[C@@H](C)C/C=C/[C@H]3[C@@H]1O", "note": "[cytochalasin B]", "values": [
      {"measurement": "Effect on the level of NGF mRNA", "setting": "[1]", "value": "does not increase"},
      {"measurement": "Effect on transfection", "setting": "[2]", "value": "No effect"},
      {"measurement": "Effect on transfection", "setting": "[2]; listed as Cytochalasin B", "value": "no effect"}
    ]},
    {"compound": "CC[C@@]1([C@@H]2O[C@@H]([C@H]3O[C@@](O)(CO)[C@H](C)C[C@@H]3C)C[C@@H]2C)CC[C@H]([C@]2(C)CC[C@]3(C[C@H](O)[C@@H](C)[C@@H]([C@@H](C)[C@@H](OC)[C@H](C)C(=O)O)O3)O2)O1", "note": "[monensin]", "values": [
      {"measurement": "Fold effect on transfection relative to no pretreatment", "setting": "[2]; 1 μM monensin for 15 min, then normal DNA-lipid complexes (FIG. 6)", "value": 9.5, "unit": "fold"}
    ]},
    {"compound": "COc1cc([C@@H]2c3cc4c(cc3[C@H](O)[C@H]3COC(=O)[C@H]23)OCO4)cc(OC)c1OC", "note": "[podophyllotoxin]", "values": [
      {"measurement": "Fold increase of transfection means ± S.D.", "setting": "[2]; optimal conditions: 20 μM free drug, 3 h pretreatment, 20% FBS", "value": "14 fold and 14 ± 5.8 fold"},
      {"measurement": "Fold increase of transfection means ± S.D.", "setting": "[2]; optimal conditions: 20 μM free drug, 3 h pretreatment, No serum", "value": "26 fold and 26 ± 4.5 fold"}
    ]},
    {"compound": "CC(=O)O[C@H]1C(=O)[C@@]2(C)[C@H]([C@H](OC(=O)c3ccccc3)[C@]3(O)C[C@H](OC(=O)[C@H](O)[C@@H](NC(=O)c4ccccc4)c4ccccc4)C(C)=C1C3(C)C)[C@]1(OC(C)=O)CO[C@@H]1C[C@@H]2O", "note": "[taxol]", "values": [
      {"measurement": "Effect on colchicine's increase of NGF mRNA", "setting": "[1]", "value": "suppresses"},
      {"measurement": "Effect on the stimulation of transfection by colchicine", "setting": "[2]; 4 μM taxol 30 min, then 0.8 μg/ml colchicine added", "value": "blocked"},
      {"measurement": "Effect on transfection efficiency, taxol alone", "setting": "[2]; pretreatment with 4 μM taxol 3 h", "value": "no effect"},
      {"measurement": "Effect on the stimulation of VB-lipoplexes", "setting": "[2]; pretreatment with taxol", "value": "blocked"}
    ]},
    {"compound": "CC[C@]1(O)C[C@@H]2CN(CCc3c([nH]c4ccccc34)[C@@](C(=O)OC)(c3cc4c(cc3OC)N(C)[C@H]3[C@@](O)(C(=O)OC)[C@H](OC(C)=O)[C@]5(CC)C=CCN6CC[C@]43[C@@H]65)C2)C1", "note": "[vinblastine]", "values": [
      {"measurement": "Effect on the level of NGF mRNA", "setting": "[1]", "value": "increase"},
      {"measurement": "Stimulation of transfection of SMGA-β-Gal plasmid (smooth muscle γ-actin gene promoter)", "setting": "[2]; CMV-IEP-β-Gal replaced with SMGA-β-Gal, preliminary result", "value": "not stimulated"},
      {"measurement": "Maximal stimulation of transgene expression", "setting": "[2]; vinblastine incorporated into the lipoplexes", "value": "~30", "unit": "fold"},
      {"measurement": "Solubility in chloroform", "setting": "[3]; chloroform", "value": "soluble"},
      {"measurement": "Solubility in water", "setting": "[3]; water", "value": "essentially insoluble"}
    ]}
  ]
}
